The text below walks through data of patent publication US8492561B2, “Azetidine derivatives as sphingosine 1-phosphate (S1P) receptor modulators” (Allergan, Inc., priority 2010, dated 2013).

For this test, the target named is T1, human S1P1 receptor (Homo sapiens, UniProt P21453).
T1 construct: expressed in transfected cells; membranes from cells stably expressing the S1P1 receptor
In words: GTP γ35S binding assay for S1P1 activity. The test is classed as biochemical. The following applies: membranes of cells stably expressing the S1P1 receptor, agonist potency. The method, then: Compounds were synthesized and tested for S1P1 activity using the GTP γ^35S binding assay. These compounds may be assessed for their ability to activate or block activation of the human S1P1 receptor in cells stably expressing the S1P1 receptor.
GTP γ^35S binding was measured in the medium containing (mM) HEPES 25, pH 7.4, MgCl2 10, NaCl 100, dithiothreitol 0.5, digitonin 0.003%, 0.2 nM GTP γ^35S, and 5 μg membrane protein in a volume of 150 μl. Test compounds were included in the concentration range from 0.08 to 5,000 nM unless indicated otherwise. Membranes were incubated with 100 μM 5′-adenylylimmidodiphosphate for 30 min, and subsequently with 10 μM GDP for 10 min on ice. Drug solutions and membrane were mixed, and then reactions were initiated by adding GTP γ^35S and continued for 30 min at 25° C. Reaction mixtures were filtered over Whatman GF/B filters under vacuum, and washed three times with 3 mL of ice-cold buffer (HEPES 25, pH7.4, MgCl2 10 and NaCl 100). Filters were dried and mixed with scintillant, and counted for ^35S activity using a β-counter. Agonist-induced GTP γ^35S binding was obtained by subtracting that in the absence of agonist. Binding data were analyzed using a non-linear regression method. In case of antagonist assay, the reaction mixture contained 10 nM S1P in the presence of test antagonist at concentrations ranging from 0.08 to 5000 nM.

The structures appear in SMILES notation.

T1 sequence (P21453 whole entry): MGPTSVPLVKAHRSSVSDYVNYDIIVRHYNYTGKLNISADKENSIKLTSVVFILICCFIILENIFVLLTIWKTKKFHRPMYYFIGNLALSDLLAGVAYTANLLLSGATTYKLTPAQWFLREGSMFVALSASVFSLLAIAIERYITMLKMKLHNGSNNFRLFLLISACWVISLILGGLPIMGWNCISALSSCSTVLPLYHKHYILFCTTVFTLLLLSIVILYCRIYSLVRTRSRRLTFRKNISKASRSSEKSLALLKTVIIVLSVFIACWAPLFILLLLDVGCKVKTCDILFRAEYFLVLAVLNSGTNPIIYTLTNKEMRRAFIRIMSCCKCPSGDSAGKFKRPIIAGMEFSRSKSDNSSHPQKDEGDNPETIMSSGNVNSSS

With `COc1cccc(C(C#Cc2ccc(CN3CC(C(=O)O)C3)cc2)Cc2ccc(C)c(C)c2)c1` (stereo not shown) [Compound 3, 1-{4-[4-(3,4-dimethylphenyl)-3-(3-methoxyphenyl)but-1-yn-1-yl]benzyl}azetidine-3-carboxylic acid], the EC50 amounted to 0.0423 µM. That is a double-digit nanomolar value. Compound `Cc1ccc(CC(C#Cc2ccc(CN3CC(C(=O)O)C3)cc2)c2cccc(Cl)c2)cc1C` (stereo not shown) [Compound 1, 1-{4-[3-(3-chlorophenyl)-4-(3,4-dimethylphenyl)but-1-yn-1 yl]benzyl}azetidine-3-carboxylic acid] gave an EC50 of 0.016 µM. Turning to `Cc1ccc(CC(C#Cc2ccc(CN3CC(C(=O)O)C3)cc2C)c2cccc(Cl)c2)cc1C` (stereo not shown) [Compound 2, 1-{4-[3-(3-Chloro-phenyl)-4-(3,4-dimethyl-phenyl)-but-1-ynyl]-3-methyl-benzyl}-azetidine-3-carboxylic acid], the midpoint of the response, the EC50, lay at 0.607 µM. Compared with the last compound, the EC50 is about 38-fold higher.

In turn, `Cc1ccc(CC(/C=C/c2ccc(CN3CC(C(=O)O)C3)cc2)c2cccc(F)c2)cc1C` (stereo not shown) [Compound 6, 1-{4-[(1E)-4-(3,4-dimethylphenyl)-3-(3-fluorophenyl)but-1-en-1-yl]benzyl}azetidine-3-carboxylic acid] came in with an EC50 of 0.0587 µM. The figure for `Cc1ccc(CC(C#Cc2ccc(CN3CC(C(=O)O)C3)cc2)c2ccc(Cl)cc2)cc1C` (stereo not shown) [Compound 4, 1-{4-[3-(4-chlorophenyl)-4-(3,4-dimethylphenyl)but-1-yn-1-yl]benzyl}azetidine-3-carboxylic acid] is 0.128 µM; for `Cc1cccc(C(C#Cc2ccc(CN3CC(C(=O)O)C3)cc2)Cc2ccc(C)c(C)c2)c1` (stereo not shown) [Compound 7, 1-{4-[4-(3,4-dimethylphenyl)-3-(3-methylphenyl)but-1-yn-1-yl]benzyl}azetidine-3-carboxylic acid] it is 0.0919 µM. With `O=C(O)C1CN(Cc2ccc(C#CC(Cc3ccc(Cl)c(Cl)c3)c3cccc(F)c3)cc2)C1` (stereo not shown) [Compound 5, 1-{4-[4-(3,4-Dichloro-phenyl)-3-(3-fluoro-phenyl)-but-1-ynyl]-benzyl}-azetidine-3-carboxylic acid] the figure was 0.31 µM.

Broadly, the EC50 is the concentration that produces a half-maximal response. High values mean weaker potency, low ones greater potency.
